Source: patent US20160082016A1, “Use of Clonazepam in Combination with Antibiotic in the Treatment of Bacterially Induced Meningitis” (COMMISSARIAT A L'ENERGIE ATOMIQUE ET AUX ENERGIES …, priority 2013, published 2016)

Tests used:
Streptococcus Pneumoniae [1] = assay: Antibiogram: growth inhibition diameter around paper disks on Mueller-Hinton gelose; format: cell-based; details: 24 hours, FIG. 5
Description: Antibiograms have been performed on the same Streptococcus Pneumoniae strain, on a Mueller-Hinton gelose plate of 90 mm diameter (Biorad) as follows 40 μL of the prepared bacteria were added to 5 mL PBS and the mix is spread on the gelose plate. The remaining liquid mix is thrown and the plate was incubated at 37° C. during 15 minutes. Antibiotic paper disks of 6mm diameter (Dominique Dutscher) were then overwhelmed with 25 μL of each molecule/combination and placed on the Mueller-Hinton gelose for 24 hours. The inhibition diameter of bacterial cell growth around the disks was then measured. • Ceftriaxone (3,2-1,6-0,8-0,4-0,2-0,1-0,05 μg/mL) • Clonazepam (10-1-0,1 μg/mL) • Ceftriaxone (0,8-0,2-0,05 μg/mL)+Clonazepam (0,1 μg/mL)

Streptococcus Pneumoniae [2] = assay: Survival of Swiss mice inoculated with Streptococcus Pneumoniae, treated with ceftriaxone plus adjuvant (bacterial meningitis model); format: in vivo
Description: 200 μL of suspended 1 Mc Farland bacteria (Streptococcus Pneumoniae, CRBIP, Institut Pasteur) were seeded overnight on blood Columbia plates (BioRad). 24 h later, bacteria were suspended in 5 mL phosphate buffer solution (PBS), and diluted to obtain 1 Mc Farland 600 nm optical density (3,2.10^7 bacteria/mL for this strain).
A mice model mimicking human bacterial meningitis (Gerber G., Acta Neuropathol. 2001) was implemented; Swiss male mice were used, with food and water ab libitum. Mice were anaesthetized using isoflurane.
The Swiss mice model has been chosen for the following reasons: • It is possible to induce bacterial meningitis in a direct and reproducible way (Gerber G., Acta Neuropathol. 2001). • The induced meningitis is similar to human meningitis (Gerber G., Acta Neuropathol. 2001). In particular, the inoculated mice present several […] symptoms/responses as infected humans. The data obtained with this model can therefore be transposed to human. • Efficiency of antibiotic agents for treating bacterial meningitis is currently studied in mice (Shapiro M. A. et al, J. Antimicrob. Chemother. 2000).
A 1/80 dilution of the prepared bacteria was then performed, so as to obtain 10^4 bacteria in 25 μL. 25 μL bacteria suspension were injected in the left brain hemisphere. 24 h, 48 h and 72 h later, mice were treated with 4 mg/day, 0.4 mg/day and 0.4 mg/day respectively of ceftriaxone. Clonazepam (or saline buffer, or water) was administrated 25 h post inoculation, by intraperitoneal (ip) or oral (po) route. Mortality was assessed several times per day, during 9 days.

[3] = tested on: pentylenetetrazol (PTZ) induced tonic seizures; assay: Anti-epileptic effect at low dose: time before pentylenetetrazol (PTZ) induced tonic seizure; format: in vivo, mice
[4] = in vivo; cited from earlier work

| SMILES | Growth inhibition diameter (Streptococcus Pneumoniae [1]; ceftriaxone alone 0,05-3,2 μg/mL) | Kaplan-Meier survival rate (Streptococcus Pneumoniae [2]; clonazepam 1 μg/kg ip + ceftriaxone, compared with 4 μg/kg, p=0,045 Logrank, FIG. 2) | Kaplan-Meier survival rate (Streptococcus Pneumoniae [2]; clonazepam 2 μg/kg ip + ceftriaxone, compared with 4 μg/kg, p=0,045 Logrank, FIG. 2) | Kaplan-Meier survival rate (Streptococcus Pneumoniae [2]; clonazepam 4 μg/kg ip 25 h after inoculation + ceftriaxone 4, 0.4, 0.4 mg/day at 24, 48, 72 h, vs ceftriaxone + NaCl, p=0,04 Logrank, FIG. 1) | Kaplan-Meier survival rate, oral vs intraperitoneal (Streptococcus Pneumoniae [2]; clonazepam 4 μg/kg orally + ceftriaxone, compared with intraperitoneally administered combination, FIGS. 1, 3, 6) | Kaplan-Meier survival rate (Streptococcus Pneumoniae [2]; clonazepam 20 μg/kg ip + ceftriaxone, compared with 4 μg/kg, FIG. 1) | Kaplan-Meier survival rate (Streptococcus Pneumoniae [2]; clonazepam 100 μg/kg ip + ceftriaxone, compared with 4 μg/kg, FIG. 1) | Amount giving satisfactory potentiating effects in mice (Streptococcus Pneumoniae [2]; mice, clonazepam with antibiotic) | Anti-epileptic effect (time before tonic seizures) ([3]; Streptococcus Pneumoniae inoculated mice, clonazepam doses inferior to 5 μg/kg, FIG. 4) | Anti-epileptic effect at the efficient adjuvant dose ([3]; clonazepam 4 μg/kg, concluded from the 1-125 μg/kg experiments) | Amount at which clonazepam has an anti-epileptic effect ([3]; healthy (non inoculated) mice, ip pretreatment 60 min before PTZ, FIG. 4) [µg/kg] | Anti-epileptic effect (time before tonic seizures) ([3]; healthy mice, clonazepam 1 μg/kg ip, FIG. 4) | Anti-epileptic effect (time before tonic seizures) ([3]; healthy mice, clonazepam 5 μg/kg ip, FIG. 4) | half-life [4] [h] | Growth inhibition diameter (potentiation of ceftriaxone in vitro) (Streptococcus Pneumoniae [1]; ceftriaxone 0,8-0,2-0,05 μg/mL + clonazepam 0,1 μg/mL) | Growth inhibition diameter (intrinsic antibiotic activity) (Streptococcus Pneumoniae [1]; clonazepam alone 10, 1, 0,1 μg/mL) |
| --- | --- | --- | --- | --- | --- | --- | --- | --- | --- | --- | --- | --- | --- | --- | --- | --- |
| CO/N=C(\C(=O)N[C@@H]1C(=O)N2C(C(=O)O)=C(CSc3nc(=O)c(=O)[nH]n3C)CS[C@H]12)c1csc(N)n1 [ceftriaxone] | inhibit bacterial growth in a dose-dependent manner | – | – | – | – | – | – | – | – | – | – | – | – | – | – | – |
| O=C1CN=C(c2ccccc2Cl)c2cc([N+](=O)[O-])ccc2N1 [clonazepam, 5-(2-chlorphenyl)-1,3-dihydro-7-nitro-2H-1,4-benzodiazepine-2-one] | – | significantly less efficient | significantly less efficient | survival increase | lower | not as efficient | not as efficient | at least 2 μg/kg | no epileptic effect | no epileptic effect | ≥ 25 | no effect | no effect | 18 to 50 | Nor is it able to potentiate the antibiotic activity of ceftriaxone in vitro | no intrinsic antibiotic activity |
